Experimental data reported in patent US9914747B2 (priority 2014, dated 2018).

These compounds were tested on recombinant NL4-3 virus (NLRluc, Renilla luciferase in nef, Gag P373S) (assay: HIV Cell Culture Assay (luciferase reporter virus in MT-2 cells)). Conditions: NL43, read-out: WT EC50.
Type: cell-based
Description: MT-2 cells and 293T cells were obtained from the NIH AIDS Research and Reference Reagent Program. MT-2 cells were propagated in RPMI 1640 media supplemented with 10% heat inactivated fetal bovine serum, […]. The 293T cells were propagated in DMEM media supplemented with 10% heat inactivated fetal bovine serum (FBS), 100 units/mL penicillin G and 100 μg/mL streptomycin. The proviral DNA clone of NL4-3 was obtained from the NIH AIDS Research and Reference Reagent Program. A recombinant NL4-3 virus, in which a section of the nef gene from NL4-3 was replaced with the Renilla luciferase gene, was used as a reference virus. In addition, residue Gag P373 was converted to P373S. Briefly, the recombinant virus was prepared by transfection of the altered proviral clone of NL4-3. Transfections were performed in 293T cells using LipofectAMINE PLUS from Invitrogen (Carlsbad, Calif.), according to manufacturer's instruction. The virus was titered in MT-2 cells using luciferase enzyme activity as a marker. Luciferase was quantitated using the Dual Luciferase kit from Promega (Madison, Wis.), with modifications to the manufacturer's protocol. The diluted Passive Lysis solution was pre-mixed with the re-suspended Luciferase Assay Reagent and the re-suspended Stop & Glo Substrate (2:1:1 ratio). Fifty (50) […] of the mixture was added to each aspirated well on assay plates and luciferase activity was measured immediately on a Wallac TriLux (Perkin-Elmer). Antiviral activities of inhibitors toward the recombinant virus were quantified by measuring luciferase activity in cells infected for 4-5 days with NLRluc recombinants in the presence serial dilutions of the inhibitor. Biological Data Key for EC50

Row | SMILES | EC50
1 | CC(C)[C@@H]1CC[C@]2(C(O)CNCCN(C)C)CC[C@]3(C)[C@H](CC[C@@H]4[C@@]5(C)CC=C(C6=CC[C@](CF)(C(=O)O)CC6)C(C)(C)[C@@H]5CC[C@]43C)[C@@H]12 (single isomer, unassigned) [Example 14] | < 0.1 µM
2 | CC(C)[C@@H]1CC[C@]2([C@H](O)CN(CCN(C)C)Cc3ccc(Cl)cc3)CC[C@]3(C)[C@H](CC[C@@H]4[C@@]5(C)CC=C(C6=CC[C@](CF)(C(=O)O)CC6)C(C)(C)[C@@H]5CC[C@]43C)[C@@H]12 (single isomer, unassigned) [Example 15] | < 0.1 µM
3 | CC(C)[C@@H]1CC[C@]2([C@@H](O)CN(CCN(C)C)Cc3ccc(Cl)cc3)CC[C@]3(C)[C@H](CC[C@@H]4[C@@]5(C)CC=C(C6=CC[C@](CF)(C(=O)O)CC6)C(C)(C)[C@@H]5CC[C@]43C)[C@@H]12 (single isomer, unassigned) [Example 16] | 0.13 µM
4 | C=C(C)[C@@H]1CC[C@]2(/C=C/C(=O)O)CC[C@]3(C)[C@H](CC[C@@H]4[C@@]5(C)CC=C(c6ccc(C(=O)O)cc6)C(C)(C)[C@@H]5CC[C@]43C)[C@@H]12 [Example 1, 4-((1R,3aR,5aR,5bR,7aR,11aS,11bR,13aR,13bR)-3a-((E)-2-carboxyvinyl)-5a,5b,8,8,8,11a-pentamethyl-1-(prop-1-en-2-yl)-2,3,3a,4,5,5a,5b,6,7,7a,8,11,11a,11b,12,13,13a,13b-octadecahydro-1H-cyclopenta[a]chrysen-9-yl)benzoic acid] | 0.02 µM
5 | C=C(C)[C@@H]1CC[C@]2(/C=C/C(=O)NCCN(C)C)CC[C@]3(C)[C@H](CC[C@@H]4[C@@]5(C)CC=C(c6ccc(C(=O)O)cc6)C(C)(C)[C@@H]5CC[C@]43C)[C@@H]12 [Example 2, 4-((1R,3aR,5aR,5bR,7aR,11aS,11bR,13aR,13bR)-3a-((E)-3-((2-(dimethylamino)ethyl)amino)-3-oxoprop-1-en-1-yl)-5a,5b,8,8,11a-pentamethyl-1-(prop-1-en-2-yl)-2,3,3a,4,5,5a,5b,6,7,7a,8,11,11a,11b,12,13,13a,13b-octadecahydro-1H-cyclopenta[a]chrysen-9-yl)benzoic acid] | > 0.1 µM
6 | C=C(C)[C@@H]1CC[C@]2(/C=C/C(=O)N3CCS(=O)(=O)CC3)CC[C@]3(C)[C@H](CC[C@@H]4[C@@]5(C)CC=C(c6ccc(C(=O)O)cc6)C(C)(C)[C@@H]5CC[C@]43C)[C@@H]12 [Example 3, 4-((1R,3aR,5aR,5bR,7aR,11aS,11bR,13aR,13bR)-3a-((E)-3-(1,1-dioxidothiomorpholino)-3-oxoprop-1-en-1-yl)-5a,5b,8,8,11a-pentamethyl-1-(prop-1-en-2-yl)-2,3,3a,4,5,5a,5b,6,7,7a,8,11,11a,11b,12,13,13a,13b-octadecahydro-1H-cyclopenta[a]chrysen-9-yl)benzoic acid] | < 0.1 µM
7 | C=C(C)[C@@H]1CC[C@]2(/C=C/C(=O)NCCCN3CCS(=O)(=O)CC3)CC[C@]3(C)[C@H](CC[C@@H]4[C@@]5(C)CC=C(c6ccc(C(=O)O)cc6)C(C)(C)[C@@H]5CC[C@]43C)[C@@H]12 [Example 4, 4-((1R,3aR,5aR,5bR,7aR,11aS,11bR,13aR,13bR)-3a-((E)-3-((3-(1,1-dioxidothiomorpholino)propyl)amino)-3-oxoprop-1-en-1-yl)-5a,5b,8,8,11a-pentamethyl-1-(prop-1-en-2-yl)-2,3,3a,4,5,5a,5b,6,7,7a,8,11,11a,11b,12,13,13a,13b-octadecahydro-1H-cyclopenta[a]chrysen-9-yl)benzoic acid] | > 0.1 µM
8 | C=C(C)[C@@H]1CC[C@]2(/C=C/C(=O)N(C)OC)CC[C@]3(C)[C@H](CC[C@@H]4[C@@]5(C)CC=C(c6ccc(C(=O)O)cc6)C(C)(C)[C@@H]5CC[C@]43C)[C@@H]12 [Example 5, 4-((1R,3aR,5aR,5bR,7aR,11aS,11bR,13aR,13bR)-3a-((E)-3-(methoxy(methyl)amino)-3-oxoprop-1-en-1-yl)-5a,5b,8,8,11a-pentamethyl-1-(prop-1-en-2-yl)-2,3,3a,4,5,5a,5b,6,7,7a,8,11,11a,11b,12,13,13a,13b-octadecahydro-1H-cyclopenta[a]chrysen-9-yl)benzoic acid] | < 0.1 µM
9 | C=C(C)[C@@H]1CC[C@]2(/C=C/CN3CCS(=O)(=O)CC3)CC[C@]3(C)[C@H](CC[C@@H]4[C@@]5(C)CC=C(c6ccc(C(=O)O)cc6)C(C)(C)[C@@H]5CC[C@]43C)[C@@H]12 [Example 6, 4-((1R,3aR,5aR,5bR,7aR,11aS,11bR,13aR,13bR)-3a-((E)-3-(1,1-dioxidothiomorpholino)prop-1-en-1-yl)-5a,5b,8,8,11a-pentamethyl-1-(prop-1-en-2-yl)-2,3,3a,4,5,5a,5b,6,7,7a,8,11,11a,11b,12,13,13a,13b-octadecahydro-1H-cyclopenta[a]chrysen-9-yl)benzoic acid] | < 0.1 µM
10 | C=C(C)[C@@H]1CC[C@]2(CCC(=O)N3CCS(=O)(=O)CC3)CC[C@]3(C)[C@H](CC[C@@H]4[C@@]5(C)CC=C(c6ccc(C(=O)O)cc6)C(C)(C)[C@@H]5CC[C@]43C)[C@@H]12 [Example 7, 4-((1R,3aR,5aR,5bR,7aR,11aS,11bR,13aR,13bR)-3a-(3-(1,1-dioxidothiomorpholino)-3-oxopropyl)-5a,5b,8,8,11a-pentamethyl-1-(prop-1-en-2-yl)-2,3,3a,4,5,5a,5b,6,7,7a,8,11,11a,11b,12,13,13a,13b-octadecahydro-1H-cyclopenta[a]chrysen-9-yl)benzoic acid] | 0.00566 µM
11 | C=C(C)[C@@H]1CC[C@]2(C(=O)C(=O)NCCCN3CCS(=O)(=O)CC3)CC[C@]3(C)[C@H](CC[C@@H]4[C@@]5(C)CC=C(c6ccc(C(=O)O)cc6)C(C)(C)[C@@H]5CC[C@]43C)[C@@H]12 [Example 8, 4-((1R,3aS,5aR,5bR,7aR,11aS,11bR,13aR,13bR)-3a-(2-((3-(1,1-dioxidothiomorpholino)propyl)amino)-2-oxoacetyl)-5a,5b,8,8,11a-pentamethyl-1-(prop-1-en-2-yl)-2,3,3a,4,5,5a,5b,6,7,7a,8,11,11a,11b,12,13,13a,13b-octadecahydro-1H-cyclopenta[a]chrysen-9-yl)benzoic acid] | < 0.1 µM
12 | C=C(C)[C@@H]1CC[C@]2(C(=O)C(=O)NCCN3CCS(=O)(=O)CC3)CC[C@]3(C)[C@H](CC[C@@H]4[C@@]5(C)CC=C(c6ccc(C(=O)O)cc6)C(C)(C)[C@@H]5CC[C@]43C)[C@@H]12 [Example 9, 4-((1R,3aS,5aR,5bR,7aR,11aS,11bR,13aR,13bR)-3a-(2-((2-(1,1-dioxidothiomorpholino)ethyl)amino)-2-oxoacetyl)-5a,5b,8,8,11a-pentamethyl-1-(prop-1-en-2-yl)-2,3,3a,4,5,5a,5b,6,7,7a,8,11,11a,11b, 12,13,13a,13b-octadecahydro-1H-cyclopenta[a]chrysen-9-yl)benzoic acid] | < 0.1 µM
13 | C=C(C)[C@@H]1CC[C@]2(CCN3CCS(=O)(=O)CC3)CC[C@]3(C)[C@H](CC[C@@H]4[C@@]5(C)CC=C(c6ccc(C(=O)O)cc6)C(C)(C)[C@@H]5CC[C@]43C)[C@@H]12 [Example 10, 4-((1R,3aR,5aR,5bR,7aR,11aS,11bR,13aR,13bR)-3a-(2-(1,1-dioxidothiomorpholino)ethyl)-5a,5b,8,8,11a-pentamethyl-1-(prop-1-en-2-yl)-2,3,3a,4,5,5a,5b,6,7,7a,8,11,11a,11b,12,13,13a,13b-octadecahydro-1H-cyclopenta[a]chrysen-9-yl)benzoic acid] | < 0.1 µM
14 | C=C(C)[C@@H]1CC[C@]2(CCNCCN3CCS(=O)(=O)CC3)CC[C@]3(C)[C@H](CC[C@@H]4[C@@]5(C)CC=C(c6ccc(C(=O)O)cc6)C(C)(C)[C@@H]5CC[C@]43C)[C@@H]12 [Example 11, 4-((1R,3aR,5aR,5bR,7aR,11aS,11bR,13aR,13bR)-3a-(2-((2-(1,1-dioxidothiomorpholino)ethyl)amino)ethyl)-5a,5b,8,8,11a-pentamethyl-1-(prop-1-en-2-yl)-2,3,3a,4,5,5a,5b,6,7,7a,8,11,11a,11b,12,13,13a,13b-octadecahydro-1H-cyclopenta[a]chrysen-9-yl)benzoic acid] | 0.00124 µM
15 | C=C(C)[C@@H]1CC[C@]2(CCN(C)CCN3CCS(=O)(=O)CC3)CC[C@]3(C)[C@H](CC[C@@H]4[C@@]5(C)CC=C(c6ccc(C(=O)O)cc6)C(C)(C)[C@@H]5CC[C@]43C)[C@@H]12 [Example 12, 4-((1R,3aR,5aR,5bR,7aR,11aS,11bR,13aR,13bR)-3a-(2-((2-(1,1-dioxidothiomorpholino)ethyl)(methyl)amino)ethyl)-5a,5b,8,8,11a-pentamethyl-1-(prop-1-en-2-yl)-2,3,3a,4,5,5a,5b,6,7,7a,8,11,11a,11b,12,13,13a,13b-octadecahydro-1H-cyclopenta[a]chrysen-9-yl)benzoic acid] | < 0.1 µM
